Laboratory results: US12552758B2, “Inhibitors of MLH1 and/or PMS2 for cancer treatment” (NeoPhore Limited, priority 2020, dated 2026)

Assays:
[1] = target: recombinant N-terminal MLH1 (residues 15-340) (Homo sapiens (Human), UniProt P40692); experiment: Fluorescence polarisation assay for MLH1 (protocol for all Examples except Examples 64, 76, 90 and 95); type: binding; settings: FP probe displacement; 100 nM N-terminal MLH1, 5 nM probe compound, read after 15 minutes; all Examples except 64, 76, 90 and 95
Sequence of recombinant N-terminal MLH1 (residues 15-340) (P40692 15-340): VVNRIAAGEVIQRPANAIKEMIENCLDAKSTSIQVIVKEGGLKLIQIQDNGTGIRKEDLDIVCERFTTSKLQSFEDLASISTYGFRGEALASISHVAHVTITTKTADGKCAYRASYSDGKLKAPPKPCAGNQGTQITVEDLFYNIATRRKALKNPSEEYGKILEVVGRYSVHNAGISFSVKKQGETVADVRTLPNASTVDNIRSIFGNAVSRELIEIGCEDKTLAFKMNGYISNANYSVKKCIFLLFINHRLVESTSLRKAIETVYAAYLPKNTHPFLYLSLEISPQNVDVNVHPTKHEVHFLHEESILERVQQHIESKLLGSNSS
Method: Fluorescence Polarisation Assay for MLH1 (Protocol for all Examples Except Examples 64, 76, 90 and 95)
(§1) Test compounds, as 10 mM DMSO stocks, were dispensed into a Black Fluotrac 200 384 well medium binding plate (Greiner Bio-One, item number 781076) using a Labcyte Echo acoustic liquid handler. For single point screening, test compounds were added to wells in columns 1-22 whilst DMSO was added to wells in columns 23 and 24 in order to normalise the plate. For potency determination, serial dilutions of test compounds were added to wells in columns 3-22 and DMSO volume was normalised across the plate.
20 μL assay buffer was added to all wells in columns 1 and 24 (column 24 only for single point screening) using a MultiDrop Combi (ThermoFisher). Plates were centrifuged for 1 minute at 250×g and were incubated at room temperature for 30 minutes prior to the addition of 20 μL of 2×(10 nM) of 5-((5-(4-((2-(2,4-dihydroxy-5-isopropylbenzoyl)isoindolin-5-yl)methyl)piperazin-1-yl)pentyl)carbamoyl)-2-(6-(dimethylamino)-3-(dimethyliminio)-3H-xanthen-9-yl)benzoate (referred to hereinafter as “probe compound”) in assay buffer (prepared from a 100 μM DMSO stock) with a MultiDrop Combi (ThermoFisher). The final concentration of N-terminal MLH1 was 100 nM and the final concentration of probe compound was 5 nM.
(§2) Compound plates were centrifuged for 1 minute at 250×g for 1 minute and were incubated at room temperature for 15 minutes before being read on a PheraStar FSX (fitted with 384-well aperture spoon and 540 590 590 FP optic module). The gain and focus were adjusted before each plate was read so that the polarisation of a no enzyme control (column 24) was equal to 35 mP. Data were normalised against the no inhibitor controls (column 23) and no enzyme controls (column 24).

[2] = target: recombinant N-terminal PMS2 (residues 1-365) (Homo sapiens (Human), UniProt P54278); experiment: Fluorescence polarisation assay for PMS2; type: binding; settings: FP probe displacement; 10 nM N-terminal PMS2, 5 nM probe compound, read after 1 hour
Sequence of recombinant N-terminal PMS2 (residues 1-365) (P54278 1-365): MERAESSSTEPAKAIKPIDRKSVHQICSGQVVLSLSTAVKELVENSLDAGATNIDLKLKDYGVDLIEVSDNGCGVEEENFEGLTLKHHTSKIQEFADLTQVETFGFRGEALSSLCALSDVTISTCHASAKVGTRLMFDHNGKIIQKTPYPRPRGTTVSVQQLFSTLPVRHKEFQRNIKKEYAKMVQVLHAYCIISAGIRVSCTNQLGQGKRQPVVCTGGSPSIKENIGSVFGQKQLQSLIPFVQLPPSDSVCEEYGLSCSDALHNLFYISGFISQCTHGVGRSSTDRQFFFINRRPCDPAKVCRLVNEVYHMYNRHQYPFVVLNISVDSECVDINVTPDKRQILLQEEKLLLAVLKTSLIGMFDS
Method: Fluorescence Polarisation Assay for PMS2
as §1
20 μL assay buffer was added to all wells in columns 1 and 24 (column 24 only for single point screening) using a MultiDrop Combi (ThermoFisher). Plates were centrifuged for 1 minute at 250×g and were incubated at room temperature for 30 minutes prior to the addition of 20 μL of 2×([…]) of 5-((5-(4-((2-(2,4-dihydroxy-5-isopropylbenzoyl)isoindolin-5-yl)methyl)piperazin-1-yl)pentyl)carbamoyl)-2-(6-(dimethylamino)-3-(dimethyliminio)-3H-xanthen-9-yl)benzoate (referred to hereinafter as “probe compound”) in assay buffer (prepared from a 100 μM DMSO stock) with a MultiDrop Combi (ThermoFisher). The final concentration of N-terminal PMS2 was 10 nM and the final concentration of probe compound was 5 nM.
as §2, with “1 hour” for “15 minutes”

| SMILES | IC50 [1] [µM] | IC50 [2] [µM] |
| --- | --- | --- |
| Cc1cccc(COc2cc(O)cc(O)c2C(=O)N2Cc3cccnc3C2)c1 [Example 32, 5,7-dihydropyrrolo[3,4-b]pyridin-6-yl-[2,4-dihydroxy-6-(m-tolylmethoxy)phenyl]methanone] | 1 to 10 | < 1 |
| Cc1c(O)cc(O)c(C(=O)N2Cc3cccnc3C2)c1OCc1ccccn1 [Example 33, 5,7-dihydropyrrolo[3,4-b]pyridin-6-yl-[4,6-dihydroxy-3-methyl-2-(2-pyridylmethoxy)phenyl]methanone] | > 10 | 1 to 10 |
| Cc1c(O)cc(O)c(C(=O)N2Cc3ccccc3C2)c1OCc1ccccn1 [Example 34, [4,6-dihydroxy-3-methyl-2-(2-pyridylmethoxy)phenyl]-isoindolin-2-yl-methanone] | > 10 | 1 to 10 |
| O=C(c1c(O)cc(O)cc1OCc1ccccn1)N1Cc2cccnc2C1 [Example 35, 5,7-dihydropyrrolo[3,4-b]pyridin-6-yl-[2,4-dihydroxy-6-(2-pyridylmethoxy)phenyl]methanone] | 1 to 10 | 1 to 10 |
| Cc1c(O)cc(O)c(C(=O)N2CCc3ccccc3C2)c1OCc1ccccc1 [Example 36, (2-benzyloxy-4,6-dihydroxy-3-methyl-phenyl)-(3,4-dihydro-1H-isoquinolin-2-yl)methanone] | > 10 | < 1 |
| O=C(c1c(O)cc(O)cc1OCc1ccccn1)N1Cc2ccccc2C1 [Example 37, [2,4-dihydroxy-6-(2-pyridylmethoxy)phenyl]-isoindolin-2-yl-methanone] | 1 to 10 | 1 to 10 |
| Cc1c(O)cc(O)c(C(=O)N2Cc3cccc(CO)c3C2)c1OCc1ccccc1 [Example 39, (2-benzyloxy-4,6-dihydroxy-3-methyl-phenyl)-[4-(hydroxymethyl)isoindolin-2-yl]methanone] | > 10 | < 1 |
| Cc1c(O)cc(O)c(C(=O)N2Cc3ccc(CN4CCN(C)CC4)cc3C2)c1OCc1ccccc1 [Example 40, (2-benzyloxy-4,6-dihydroxy-3-methyl-phenyl)-[5-[(4-methylpiperazin-1-yl)methyl]isoindolin-2-yl]methanone] | > 10 | < 1 |
| COc1ccc2c(c1)CCN(C(=O)c1c(O)cc(O)c(C)c1OCc1ccccc1)C2 [Example 41, (2-benzyloxy-4,6-dihydroxy-3-methyl-phenyl)-(6-methoxy-3,4-dihydro-1H-isoquinolin-2-yl)methanone] | > 10 | < 1 |
| Cc1c(O)cc(O)c(C(=O)N2CCc3ccncc3C2)c1OCc1ccccc1 [Example 42, (2-benzyloxy-4,6-dihydroxy-3-methyl-phenyl)-(3,4-dihydro-1H-2,7-naphthyridin-2-yl)methanone] | > 10 | 1 to 10 |
| Cc1c(O)cc(O)c(C(=O)N2CCc3cnccc3C2)c1OCc1ccccc1 [Example 43, (2-benzyloxy-4,6-dihydroxy-3-methyl-phenyl)-(3,4-dihydro-1H-2,6-naphthyridin-2-yl)methanone] | > 10 | 1 to 10 |
| Cc1cccc(COc2c(C)c(O)cc(O)c2C(=O)N2CCc3ccccc3C2)c1 [Example 44, 3,4-dihydro-1H-isoquinolin-2-yl-[4,6-dihydroxy-3-methyl-2-(m-tolylmethoxy)phenyl]methanone] | > 10 | < 1 |

Continued, values first:

| IC50 [1] [µM] | IC50 [2] [µM] | SMILES |
| --- | --- | --- |
| > 10 | > 10 | COc1ccc2c(c1)CCN(C(=O)c1c(O)cc(O)c(C)c1OCc1ccccn1)C2 [Example 47, [4,6-dihydroxy-3-methyl-2-(2-pyridylmethoxy)phenyl]-(6-methoxy-3,4-dihydro-1H-isoquinolin-2-yl)methanone] |
| > 10 | < 1 | Cc1c(O)cc(O)c(C(=O)N2CCc3ccccc3C2)c1OCc1ccc(F)cc1 [Example 48, 3,4-dihydro-1H-isoquinolin-2-yl-[2-[(4-fluorophenyl)methoxy]-4,6-dihydroxy-3-methyl-phenyl]methanone] |
| 1 to 10 | < 1 | CN1CCN(Cc2ccc3c(c2)CN(C(=O)c2c(O)cc(O)cc2OCc2ccccc2)C3)CC1 [Example 49, (2-(benzyloxy)-4,6-dihydroxyphenyl)(5-((4-methylpiperazin-1-yl)methyl)isoindolin-2-yl)methanone] |
| > 10 | < 1 | Cc1c(O)cc(O)c(C(=O)N2Cc3cccc(N)c3C2)c1OCc1ccccc1 [Example 50, (4-aminoisoindolin-2-yl)(2-(benzyloxy)-4,6-dihydroxy-3-methylphenyl)methanone] |
| > 10 | < 1 | C=Cc1cccc2c1CN(C(=O)c1c(O)cc(O)c(C)c1OCc1ccccc1)C2 [Example 51, (2-(benzyloxy)-4,6-dihydroxy-3-methylphenyl)(4-vinylisoindolin-2-yl)methanone] |
| > 10 | < 1 | COc1ccc2c(c1)CN(C(=O)c1c(O)cc(O)c(C)c1OCc1ccccc1)CC2 [Example 52, (2-(benzyloxy)-4,6-dihydroxy-3-methylphenyl)(7-methoxy-3,4-dihydroisoquinolin-2(1H)-yl)methanone] |
| > 10 | 1 to 10 | Cc1c(O)cc(O)c(C(=O)N2CCc3cccnc3C2)c1OCc1ccccc1 [Example 53, (2-(benzyloxy)-4,6-dihydroxy-3-methylphenyl)(5,8-dihydro-1,7-naphthyridin-7(6H)-yl)methanone] |
| > 10 | 1 to 10 | Cc1c(O)cc(O)c(C(=O)N2CCc3ncccc3C2)c1OCc1ccccc1 [Example 54, (2-(benzyloxy)-4,6-dihydroxy-3-methylphenyl)(7,8-dihydro-1,6-naphthyridin-6(5H)-yl)methanone] |
| > 10 | 1 to 10 | Cc1c(O)cc(O)c(C(=O)N2CCc3ncncc3C2)c1OCc1ccccc1 [Example 55, (2-(benzyloxy)-4,6-dihydroxy-3-methylphenyl)(7,8-dihydropyrido[4,3-d]pyrimidin-6(5H)-yl)methanone] |
| > 10 | 1 to 10 | Cc1c(O)cc(O)c(C(=O)N2CCc3cncnc3C2)c1OCc1ccccc1 [Example 56, (2-(benzyloxy)-4,6-dihydroxy-3-methylphenyl)(5,8-dihydropyrido[3,4-d]pyrimidin-7(6H)-yl)methanone] |
| > 10 | > 10 | Cc1c(O)cc(O)c(C(=O)N2CCc3ccccc3C2)c1OCc1ccn(C)n1 [Example 57, (3,4-dihydroisoquinolin-2(1H)-yl)(4,6-dihydroxy-3-methyl-2-((1-methyl-1H-pyrazol-3-yl)methoxy)phenyl)methanone] |
| 1 to 10 | 1 to 10 | O=C(c1c(O)cc(O)cc1OCc1ccccc1)N1CCc2ccccc2C1 [Example 58, (2-(benzyloxy)-4,6-dihydroxyphenyl)(3,4-dihydroisoquinolin-2(1H)-yl)methanone] |
| > 10 | < 1 | Cc1c(O)cc(O)c(C(=O)N2Cc3ccccc3C2)c1OCc1ccccc1 [Example 59, (2-(benzyloxy)-4,6-dihydroxy-3-methylphenyl)(isoindolin-2-yl)methanone] |
| > 10 | < 1 | Cc1c(O)cc(O)c(C(=O)N2CCc3ccc(CN(C)C)cc3C2)c1OCc1ccccc1 [Example 60, (2-(benzyloxy)-4,6-dihydroxy-3-methylphenyl)(7-((dimethylamino)methyl)-3,4-dihydroisoquinolin-2(1H)-yl)methanone] |
| > 10 | < 1 | Cc1c(O)cc(O)c(C(=O)N2CCc3cc(CN(C)C)ccc3C2)c1OCc1ccccc1 [Example 61, (2-(benzyloxy)-4,6-dihydroxy-3-methylphenyl)(6-((dimethylamino)methyl)-3,4-dihydroisoquinolin-2(1H)-yl)methanone] |
| > 10 | 1 to 10 | Cc1c(O)cc(O)c(C(=O)N2Cc3ccccc3C[C@H]2CO)c1OCc1ccccc1 [Example 62, (S)-(2-(Benzyloxy)-4,6-dihydroxy-3-methylphenyl)(3-(hydroxymethyl)-3,4-dihydroisoquinolin-2(1H)-yl)methanone] |
